Legend:
[1] = Brain:plasma distribution in rat; assay type: in vivo; conditions: male, Sprague Dawley, brain and plasma, IV 0.2 mg/kg, 15 minutes postdose
Description: VU0542270 was formulated as a solution in ethanol, PEG400, and saline (1:4:5 v/v, respectively) and administered to male Sprague Dawley rats (n = 1) intravenously at 0.2 mg/kg. At 15 minutes postdose, a blood sample was collected terminally into chilled K2EDTA anticoagulant-fortified tubes and immediately placed on wet ice. The blood sample was then centrifuged (1700 rcf, 5 minutes, 4°C) to obtain a plasma sample. At the same postadministration time point(s), a whole-brain sample was obtained by rapid dissection, rinsing with PBS, and immediate freezing in individual tissue collection boxes (dry ice). All brain and plasma samples were stored at −80°C until analysis by LC-MS/MS. In vivo brain:plasma distribution partition coefficient of VU0542270 was determined from the observed animal brain versus plasma concentrations.
Plasma samples from the in-life phases of the studies were thawed at ambient temperature (benchtop), and then aliquots (20 µL per sample) were transferred to a 96-shallow-well (V-bottom) plate. […]
Prepared samples were injected (10 µL each) onto an AB Sciex triple quad-4500 mass spectrometer system with an Agilent 1290 Infinity Binary Pump and multisampler. […] Quantitation of VU0542270 was performed via AB Sciex Analyst software using the raw analyte:IS peak area ratios. […]

Kir1.1 = biological target: T1, Kir1.1 (Homo sapiens, UniProt P48048); experiment: Thallium flux selectivity assay Kir1.1; assay type: cell-based
T1 construct: expressed in transfected cells
T1 sequence (P48048 1-391): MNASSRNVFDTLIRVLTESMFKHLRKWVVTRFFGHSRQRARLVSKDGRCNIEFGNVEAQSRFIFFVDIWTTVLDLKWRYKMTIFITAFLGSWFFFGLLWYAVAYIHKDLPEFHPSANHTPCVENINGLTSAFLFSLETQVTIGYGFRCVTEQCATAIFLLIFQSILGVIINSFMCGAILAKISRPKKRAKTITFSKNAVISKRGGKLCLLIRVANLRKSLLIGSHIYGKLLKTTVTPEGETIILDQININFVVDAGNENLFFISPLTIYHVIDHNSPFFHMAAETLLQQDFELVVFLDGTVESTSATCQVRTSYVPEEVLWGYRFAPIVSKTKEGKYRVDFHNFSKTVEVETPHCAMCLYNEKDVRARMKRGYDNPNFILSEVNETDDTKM
Description: Quantitative thallium flux assays of Kir6.1/SUR2B activity were performed essentially as described previously for Kir6.2/SUR1 ([Raphemot et al., 2014]; [Kharade et al., 2019]). Stable T-Rex-HEK293-Kir6.1/SUR2B cells or transiently transfected HEK293T cells were plated in polyamine-coated, clear-bottomed, black-walled 384-well plates and were cultured (37°C/5% CO2) overnight in Dulbecco’s modified Eagle’s medium (Gibco, Carlsbad, CA, 11995-065) containing 10% FBS (2 mM Penicillin-Streptomycin). The following day, cells were washed with assay buffer (i.e., Hanks’ balanced salt solution/20 mM HEPES) and loaded for 1 hour with thallium sensor dye Brilliant Thallium (Ion Bioscience, San Marcos, TX) at room temperature. Dye-loaded cells were washed with assay buffer and transferred to a Panoptic Kinetic Imaging Plate Reader (Wavefront Bioscience, Franklin, TN). Control and test compound treatments were for 4 minutes prior to adding 0.5 mM chloride-free thallium stimulus buffer (Ion Bioscience) to initiate thallium flux. […] Selectivity assays against other Kir channels were performed essentially as described previously ([Kharade et al., 2018]; [McClenahan et al., 2022]).

Kp at 0.25 h [1]: 0.11 | IC50 (Kir1.1): > 30 µM
Compound: Cc1nc(-c2cccs2)sc1CNC(=O)Nc1cccs1 [VU0542270]

— article PMC10877733, “Discovery and Characterization of VU0542270, the First Selective Inhibitor of Vascular Kir6.1/SUR2B KATP Channels” (Molecular Pharmacology, 2024)
